SMILES strings stand for the structures.

The assay deals with HT-1080 (ATCC, CCL-121) cells. The assay can be described thus: HT-1080 cell viability assay with ferroptosis inducer RSL3 (Cell Titer-Glo). The class given is cell-based. Conditions: Homo sapiens; HT-1080 cells treated with RSL3; 3-fold, 10-point dilution, 1.1 μM highest concentration; Table 2; read-out: EC50 (nM), ferroptosis inhibitory activity. The method in brief:
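HT-1080 cells (6000 per well) were cultured overnight at 37 °C, then co-treated with RSL3 and compound in a 3-fold, 10-point series topping at 1.1 μM. Viability was read by CellTiter-Glo luminescence and normalized to untreated controls. EC50 came from a sigmoidal non-linear regression fit.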
Background: ATP-based viability assays read luminescence as a measure of living cells.
Take `CC1CCN(c2ccc(Nc3cc(Cl)c4c(c3)CN(C(=O)C(F)(F)F)C4)cc2)CC1` [Compound 253, 1-(4-chloro-6-((4-(4-methylpiperidin-1-yl)phenyl)amino)isoindolin-2-yl)-2,2,2-trifluoroethan-1-one]: the concentration giving a half-maximal response (EC50) was 0.1 to 100 nM.
In the case of `CC1CCC(C)N1c1ccc(Nc2ccc3c(c2)n(C)c(=O)n3C)cc1` (stereo not drawn) [Compound 254, 5-((4-(2,5-dimethylpyrrolidin-1-yl)phenyl)amino)-1,3-dimethyl-1,3-dihydro-2H-benzo[d]imidazol-2-one] it was 0.1 to 100 nM; in that of `CC1CCN(c2ccc(Nc3cc4c(c([N+](=O)[O-])c3)CN(C(=O)C(F)(F)F)C4)cc2)CC1` [Compound 255, 2,2,2-trifluoro-1-(6-((4-(4-methylpiperidin-1-yl)phenyl)amino)-4-nitroisoindolin-2-yl)ethan-1-one], 0.1 to 100 nM; in that of `Cn1c(=O)oc2cc(Nc3ccc(N4CCC(C(F)(F)F)CC4)cc3)ccc21` [Compound 256], 0.1 to 100 nM.
With `Cn1[nH]c2cc(Nc3ccc(N4CCCCC4)cc3)ccc2c1=O` [Compound 257, 2-methyl-6-((4-(piperidin-1-yl)phenyl)amino)-1,2-dihydro-3H-indazol-3-one], the concentration giving a half-maximal response (EC50) was 0.1 to 100 nM.
On to `O=C1c2ccc(Nc3ccc(N4CCC(C(F)(F)F)CC4)cc3)cc2CN1C1CCOCC1` [Compound 258, 2-(tetrahydro-2H-pyran-4-yl)-5-((4-(4-(trifluoromethyl)piperidin-1-yl)phenyl)amino)isoindolin-1-one], for which the concentration for a half-maximal effect (EC50) fell in the range of 0.1 to 100 nM.
Next, `CC1CCC(C)N1c1ccc(Nc2ccc3c(=O)n(C)[nH]c3c2)cc1` (stereo not drawn) [Compound 259, 6-((4-(2,5-dimethylpyrrolidin-1-yl)phenyl)amino)-2-methyl-1,2-dihydro-3H-indazol-3-one]: 0.1 to 100 nM.
Consider `CCCCCN(CC)c1ccc(Nc2ccc3c(c2)n(C)c(=O)n3C)cc1` [Compound 260, 5-((4-(ethyl(pentyl)amino)phenyl)amino)-1,3-dimethyl-1,3-dihydro-2H-benzo[d]imidazol-2-one], for which the EC50 lay within 0.1 to 100 nM.
Next, `Cn1c(=O)n(C)c2cc(Nc3ccc(C(C)(C)C)cc3)ccc21` [Compound 261, 5-((4-(tert-butyl)phenyl)amino)-1,3-dimethyl-1,3-dihydro-2H-benzo[d]imidazol-2-one]: 0.1 to 100 nM; `CCN(CCCOC)c1ccc(Nc2ccc3c(c2)n(C)c(=O)n3C)cc1` [Compound 262, 5-((4-(ethyl(3-methoxypropyl)amino)phenyl)amino)-1,3-dimethyl-1,3-dihydro-2H-benzo[d]imidazol-2-one]: 0.1 to 100 nM.
Next, `Cc1c(N2CCC(C)CC2)ccc(Nc2ccc3c(c2)n(C)c(=O)n3C)c1F` [Compound 263, 5-((2-fluoro-3-methyl-4-(4-methylpiperidin-1-yl)phenyl)amino)-1,3-dimethyl-1,3-dihydro-2H-benzo[d]imidazol-2-one]: 0.1 to 100 nM.
In the case of `Cc1cc(N2CCC(C)CC2)c(F)cc1Nc1ccc2c(c1)n(C)c(=O)n2C` [Compound 264, 5-((5-fluoro-2-methyl-4-(4-methylpiperidin-1-yl)phenyl)amino)-1,3-dimethyl-1,3-dihydro-2H-benzo[d]imidazol-2-one] it was 0.1 to 100 nM; in that of `Cc1cc(N2CCC(C)CC2)c(Cl)cc1Nc1ccc2c(c1)n(C)c(=O)n2C` [Compound 265, 5-((5-chloro-2-methyl-4-(4-methylpiperidin-1-yl)phenyl)amino)-1,3-dimethyl-1,3-dihydro-2H-benzo[d]imidazol-2-one], 0.1 to 100 nM.
Turning to `Cn1ccc2cc(Nc3ccc4c(c3)n(C)c(=O)n4C)ccc21` [Compound 266, 1,3-dimethyl-5-((1-methyl-1H-indol-5-yl)amino)-1,3-dihydro-2H-benzo[d]imidazol-2-one], the half-maximal effective concentration (EC50) is 0.1 to 100 nM.
Next, `CC1CCN(c2ccc(Nc3cc(Cl)c4c(c3)CN(C)C4)cc2)CC1` [Compound 267, 7-chloro-2-methyl-N-(4-(4-methylpiperidin-1-yl)phenyl)isoindolin-5-amine]: 0.1 to 100 nM; `CCN(CC)c1ccc(Nc2ccc3c(c2)n(C)c(=O)n3C)cc1` [Compound 268, 5-((4-(diethylamino)phenyl)amino)-1,3-dimethyl-1,3-dihydro-2H-benzo[d]imidazol-2-one]: 0.1 to 100 nM.
In the case of `COc1cc(Nc2ccc3c(c2)n(C)c(=O)n3C)ccc1N1CCC(C(F)(F)F)CC1` [Compound 269, 5-((3-methoxy-4-(4-(trifluoromethyl)piperidin-1-yl)phenyl)amino)-1,3-dimethyl-1,3-dihydro-2H-benzo[d]imidazol-2-one] it was 0.1 to 100 nM.
Take `CC1CCN(c2ccc(Nc3ccc4ncn(C)c4c3)cc2)CC1` [Compound 270, 1-methyl-N-(4-(4-methylpiperidin-1-yl)phenyl)-1H-benzo[d]imidazol-6-amine]: the concentration giving a half-maximal response (EC50) lay within 0.1 to 100 nM.
In the case of `Cn1c(=O)n(C)c2cc(Nc3ccc(N4CCCC4)cc3)ccc21` [Compound 271, 1,3-dimethyl-5-((4-(pyrrolidin-1-yl)phenyl)amino)-1,3-dihydro-2H-benzo[d]imidazol-2-one] it was 0.1 to 100 nM.
In the case of `COc1cc(N2CCC(C)CC2)cc(F)c1Nc1ccc2c(c1)n(C)c(=O)n2C` [Compound 272, 5-((2-fluoro-6-methoxy-4-(4-methylpiperidin-1-yl)phenyl)amino)-1,3-dimethyl-1,3-dihydro-2H-benzo[d]imidazol-2-one], the EC50 was 0.1 to 100 nM.
In the case of `CC1CCN(c2ccc(Nc3ccc4c(c3)oc(=O)n4C)cc2)CC1` [Compound 273, 3-methyl-6-((4-(4-methylpiperidin-1-yl)phenyl)amino) benzo[d]oxazol-2(3H)-one] it was 0.1 to 100 nM.
Next, `CC1CCN(c2c(F)cc(Nc3ccc4c(c3)n(C)c(=O)n4C)cc2F)CC1` [Compound 274, 5-((3,5-difluoro-4-(4-methylpiperidin-1-yl)phenyl)amino)-1,3-dimethyl-1,3-dihydro-2H-benzo[d]imidazol-2-one]: 0.1 to 100 nM.
In the case of `Cc1c(Nc2ccc3c(c2)n(C)c(=O)n3C)ccc(N2CCC(C)CC2)c1F` [Compound 275, 5-((3-fluoro-2-methyl-4-(4-methylpiperidin-1-yl)phenyl)amino)-1,3-dimethyl-1,3-dihydro-2H-benzo[d]imidazol-2-one] it was 0.1 to 100 nM; in that of `CC1CCN(c2ccc(Nc3ccc4c(c3)n(C)c(=O)n4C)cn2)CC1` [Compound 276, 1,3-dimethyl-5-((6-(4-methylpiperidin-1-yl)pyridin-3-yl)amino)-1,3-dihydro-2H-benzo[d]imidazol-2-one], 0.1 to 100 nM.
For `CN(C)c1cc(Nc2ccc3c(c2)n(C)c(=O)n3C)cc(N(C)C)c1` [Compound 277, 5-((3,5-bis(dimethylamino)phenyl)amino)-1,3-dimethyl-1,3-dihydro-2H-benzo[d]imidazol-2-one], the concentration giving a half-maximal response (EC50) is 0.1 to 100 nM.
Next, `Cc1cc(N2CCC(C)CC2)cc(C)c1Nc1ccc2c(c1)n(C)c(=O)n2C` [Compound 278, 5-((2,6-dimethyl-4-(4-methylpiperidin-1-yl)phenyl)amino)-1,3-dimethyl-1,3-dihydro-2H-benzo[d]imidazol-2-one]: 0.1 to 100 nM.
Next, `CC1CN(c2ccc(Nc3ccc4c(c3)n(C)c(=O)n4C)cc2)CC(C)O1` (stereo not drawn) [Compound 279, 5-((4-(2,6-dimethylmorpholino)phenyl)amino)-1,3-dimethyl-1,3-dihydro-2H-benzo[d]imidazol-2-one]: 0.1 to 100 nM; `Cc1cc(N2CCC(C)CC2)ccc1Nc1ccc2c(c1)n(C)c(=O)n2C` [Compound 280, 1,3-dimethyl-5-((2-methyl-4-(4-methylpiperidin-1-yl)phenyl)amino)-1,3-dihydro-2H-benzo[d]imidazol-2-one]: 0.1 to 100 nM.
In the case of `Cc1c(Nc2ccc3c(c2)n(C)c(=O)n3C)ccc(N2CCC(C)CC2)c1C` [Compound 281, 5-((2,3-dimethyl-4-(4-methylpiperidin-1-yl)phenyl)amino)-1,3-dimethyl-1,3-dihydro-2H-benzo[d]imidazol-2-one] it was 0.1 to 100 nM.
As for `Cc1cc(Nc2ccc3c(c2)n(C)c(=O)n3C)ccc1N1CCC(C)CC1` [Compound 282, 1,3-dimethyl-5-((3-methyl-4-(4-methylpiperidin-1-yl)phenyl)amino)-1,3-dihydro-2H-benzo[d]imidazol-2-one], the EC50 was 0.1 to 100 nM.
Next, `CC1CCN(c2ccc(Nc3ccc4c(c3)n(C)c(=O)n4C)cc2F)CC1` [Compound 283, 5-((3-fluoro-4-(4-methylpiperidin-1-yl)phenyl)amino)-1,3-dimethyl-1,3-dihydro-2H-benzo[d]imidazol-2-one]: 0.1 to 100 nM; `CN(C)c1ccc(Nc2ccc3c(c2)n(C)c(=O)n3C)cc1` [Compound 284, 5-((4-(dimethylamino)phenyl)amino)-1,3-dimethyl-1,3-dihydro-2H-benzo[d]imidazol-2-one]: 0.1 to 100 nM.
Regarding `CC1CCN(c2ccc(Nc3ccc4c(c3)ncn4C)cc2)CC1` [Compound 285, 1-methyl-N-(4-(4-methylpiperidin-1-yl)phenyl)-1H-benzo[d]imidazol-5-amine], the EC50 lay within 0.1 to 100 nM.
In the case of `CC1CCN(c2ccc(Nc3ccc4oc(=O)n(C)c4c3)cc2)CC1` [Compound 286, 3-methyl-5-((4-(4-methylpiperidin-1-yl)phenyl)amino)benzo[d]oxazol-2(3H)-one], the EC50 was in the range of 0.1 to 100 nM.
Next, `CC1CCN(c2ccc(Nc3ccc4c(c3)n(C)c(=O)n4C)cc2)CC1` [Compound 287, 1,3-dimethyl-5-((4-(4-methylpiperidin-1-yl)phenyl)amino)-1,3-dihydro-2H-benzo[d]imidazol-2-one]: 0.1 to 100 nM.
Next, `CN1CCOc2cc(Nc3ccc4c(c3)n(C)c(=O)n4C)ccc21` [Compound 288, 1,3-dimethyl-5-((4-methyl-3,4-dihydro-2H-benzo[b][1,4]oxazin-7-yl)amino)-1,3-dihydro-2H-benzo[d]imidazol-2-one]: 0.1 to 100 nM.

Broadly, the EC50 is the concentration that produces a half-maximal response.

Source of the values: US20240327393A1 (SIRONAX LTD., priority 2021, published 2024).
